Reference: PubChem BioAssay (NCI)
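A five-concentration, 48-hour dose response in 96-well plates underlies each endpoint, interpolated linearly between surrounding concentrations. TGI: concentration producing complete growth inhibition.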

Tests used:
Experiment in all cases: NCI-60 cell line screen, 48 h
OVCAR-5 ovarian = test system: OVCAR-5 ovarian
MDA-N = test system: MDA-N
SK-MEL-2 melanoma = test system: SK-MEL-2 melanoma
SW-620 colon = test system: SW-620 colon
HT29 colon = test system: HT29 colon
HS 578T breast = test system: HS 578T breast
CAKI-1 renal = test system: CAKI-1 renal
HCT-116 colon = test system: HCT-116 colon
OVCAR-3 ovarian = test system: OVCAR-3 ovarian
MDA-MB-231 breast = test system: MDA-MB-231 breast
HOP-92 NSCLC = test system: HOP-92 NSCLC
NCI-H522 lung = test system: NCI-H522 lung
EKVX NSCLC = test system: EKVX NSCLC
HOP-62 NSCLC = test system: HOP-62 NSCLC
SNB-19 CNS = test system: SNB-19 CNS
UO-31 renal = test system: UO-31 renal
MDA-MB-435 = test system: MDA-MB-435
K-562 leukemia = test system: K-562 leukemia
UACC-62 melanoma = test system: UACC-62 melanoma
U251 CNS = test system: U251 CNS
DU-145 prostate = test system: DU-145 prostate
KM12 colon = test system: KM12 colon
COLO 205 colon = test system: COLO 205 colon
SF-268 CNS = test system: SF-268 CNS
RXF 393 renal = test system: RXF 393 renal
IGROV1 ovarian = test system: IGROV1 ovarian
NCI-H23 lung = test system: NCI-H23 lung
OVCAR-8 ovarian = test system: OVCAR-8 ovarian
MOLT-4 leukemia = test system: MOLT-4 leukemia
OVCAR-4 ovarian = test system: OVCAR-4 ovarian
ACHN renal = test system: ACHN renal
HCC-2998 colon = test system: HCC-2998 colon
SK-OV-3 ovarian = test system: SK-OV-3 ovarian
NCI/ADR-RES ovarian = test system: NCI/ADR-RES ovarian
SF-539 CNS = test system: SF-539 CNS
PC-3 prostate = test system: PC-3 prostate
M14 melanoma = test system: M14 melanoma
SR leukemia = test system: SR leukemia
NCI-H460 lung = test system: NCI-H460 lung
A549 NSCLC = test system: A549 NSCLC
SN12C renal = test system: SN12C renal
HCT-15 colon = test system: HCT-15 colon
MCF7 breast = test system: MCF7 breast
RPMI-8226 leukemia = test system: RPMI-8226 leukemia
SK-MEL-5 melanoma = test system: SK-MEL-5 melanoma
786-0 renal = test system: 786-0 renal
CCRF-CEM leukemia = test system: CCRF-CEM leukemia
SF-295 CNS = test system: SF-295 CNS
BT-549 breast = test system: BT-549 breast
SK-MEL-28 melanoma = test system: SK-MEL-28 melanoma
UACC-257 melanoma = test system: UACC-257 melanoma
A498 renal = test system: A498 renal
SNB-75 CNS = test system: SNB-75 CNS
MALME-3M melanoma = test system: MALME-3M melanoma
NCI-H226 lung = test system: NCI-H226 lung
HL-60(TB) leukemia = test system: HL-60(TB) leukemia
LOX IMVI melanoma = test system: LOX IMVI melanoma
TK-10 renal = test system: TK-10 renal

In the case of `CC(=O)OCC1OC(N2C(=S)N[C@H]([C@@H](O)[C@H](O)[C@H](O)CO)[C@H]2O)C(OC(C)=O)C(OC(C)=O)C1OC(C)=O` (stereo partly specified), the TGI (OVCAR-5 ovarian) is reported as over 100 µM, the TGI (MDA-N) is reported as over 100 µM and the TGI (SK-MEL-2 melanoma) is reported as over 100 µM. The TGI (SW-620 colon) was over 100 µM, the TGI (HT29 colon) was over 100 µM and the TGI (HS 578T breast) was over 100 µM. For the same compound, the TGI (CAKI-1 renal) was over 100 µM, the TGI (HCT-116 colon) was over 100 µM and the TGI (OVCAR-3 ovarian) was over 100 µM. It also gave a TGI (MDA-MB-231 breast) of over 100 µM, a TGI (HOP-92 NSCLC) of over 100 µM and a TGI (NCI-H522 lung) of over 100 µM. For the same compound, the TGI (EKVX NSCLC) was over 100 µM, the TGI (HOP-62 NSCLC) was over 100 µM and the TGI (SNB-19 CNS) was over 100 µM. For the same compound, the TGI (UO-31 renal) was over 100 µM, the TGI (MDA-MB-435) was over 100 µM and the TGI (K-562 leukemia) was over 100 µM. It also gave a TGI (UACC-62 melanoma) of over 100 µM, a TGI (U251 CNS) of over 100 µM and a TGI (DU-145 prostate) of over 100 µM. It also gave a TGI (KM12 colon) of over 100 µM, a TGI (COLO 205 colon) of over 100 µM and a TGI (SF-268 CNS) of over 100 µM. The TGI (RXF 393 renal) was over 100 µM, the TGI (IGROV1 ovarian) was over 100 µM and the TGI (NCI-H23 lung) was over 100 µM. The TGI (OVCAR-8 ovarian) was over 100 µM, the TGI (MOLT-4 leukemia) was over 100 µM and the TGI (OVCAR-4 ovarian) was over 100 µM. It also gave a TGI (ACHN renal) of over 100 µM, a TGI (HCC-2998 colon) of over 100 µM and a TGI (SK-OV-3 ovarian) of over 100 µM. It also gave a TGI (NCI/ADR-RES ovarian) of over 100 µM, a TGI (SF-539 CNS) of over 100 µM and a TGI (PC-3 prostate) of over 100 µM. For the same compound, the TGI (M14 melanoma) was over 100 µM, the TGI (SR leukemia) was over 100 µM and the TGI (NCI-H460 lung) was over 100 µM. The TGI (A549 NSCLC) was over 100 µM, the TGI (SN12C renal) was over 100 µM and the TGI (HCT-15 colon) was over 100 µM. For the same compound, the TGI (MCF7 breast) was over 100 µM, the TGI (RPMI-8226 leukemia) was over 100 µM and the TGI (SK-MEL-5 melanoma) was over 100 µM. For the same compound, the TGI (786-0 renal) was over 100 µM, the TGI (CCRF-CEM leukemia) was over 100 µM and the TGI (SF-295 CNS) was over 100 µM. The TGI (BT-549 breast) was over 100 µM, the TGI (SK-MEL-28 melanoma) was over 100 µM and the TGI (UACC-257 melanoma) was over 100 µM.

In the case of `C/C=C\C(CC(=O)O)CN1CCC2=C(C1)C(S(=O)(=O)C(F)(F)F)c1ccccc12` (stereo unspecified), the TGI (OVCAR-5 ovarian) is reported as over 100 µM, the TGI (MDA-N) is reported as over 100 µM and the TGI (SK-MEL-2 melanoma) is reported as over 100 µM. The TGI (SW-620 colon) was over 100 µM, the TGI (HT29 colon) was over 100 µM and the TGI (HS 578T breast) was over 100 µM. For the same compound, the TGI (CAKI-1 renal) was over 100 µM, the TGI (HCT-116 colon) was over 100 µM and the TGI (A498 renal) was over 100 µM. For the same compound, the TGI (OVCAR-3 ovarian) was over 100 µM, the TGI (MDA-MB-231 breast) was over 100 µM and the TGI (HOP-92 NSCLC) was over 100 µM. The TGI (SNB-75 CNS) was over 100 µM, the TGI (NCI-H522 lung) was over 100 µM and the TGI (EKVX NSCLC) was over 100 µM. It also gave a TGI (HOP-62 NSCLC) of over 100 µM, a TGI (SNB-19 CNS) of over 100 µM and a TGI (MALME-3M melanoma) of over 100 µM. It also gave a TGI (UO-31 renal) of over 100 µM, a TGI (MDA-MB-435) of over 100 µM and a TGI (K-562 leukemia) of over 100 µM. It also gave a TGI (UACC-62 melanoma) of over 100 µM, a TGI (U251 CNS) of over 100 µM and a TGI (DU-145 prostate) of over 100 µM. The TGI (KM12 colon) was over 100 µM, the TGI (COLO 205 colon) was over 100 µM and the TGI (SF-268 CNS) was over 100 µM. It also gave a TGI (RXF 393 renal) of over 100 µM, a TGI (IGROV1 ovarian) of over 100 µM and a TGI (NCI-H23 lung) of over 100 µM. It also gave a TGI (OVCAR-8 ovarian) of over 100 µM, a TGI (MOLT-4 leukemia) of over 100 µM and a TGI (OVCAR-4 ovarian) of over 100 µM. The TGI (ACHN renal) was over 100 µM, the TGI (HCC-2998 colon) was over 100 µM and the TGI (SK-OV-3 ovarian) was over 100 µM. It also gave a TGI (NCI/ADR-RES ovarian) of over 100 µM, a TGI (PC-3 prostate) of over 100 µM and a TGI (M14 melanoma) of over 100 µM. For the same compound, the TGI (SR leukemia) was over 100 µM, the TGI (NCI-H460 lung) was over 100 µM and the TGI (A549 NSCLC) was over 100 µM. It also gave a TGI (HCT-15 colon) of over 100 µM, a TGI (MCF7 breast) of over 100 µM and a TGI (RPMI-8226 leukemia) of over 100 µM. The TGI (SK-MEL-5 melanoma) was over 100 µM, the TGI (786-0 renal) was over 100 µM and the TGI (SF-295 CNS) was over 100 µM. For the same compound, the TGI (BT-549 breast) was over 100 µM, the TGI (SK-MEL-28 melanoma) was over 100 µM and the TGI (UACC-257 melanoma) was over 100 µM.

`CC(=O)Nc1ccc(NNc2cc(=O)n(C)c(=O)[nH]2)cc1` showed a TGI (OVCAR-5 ovarian) of 27.1 µM, a TGI (MDA-N) of 23.7 µM and a TGI (SW-620 colon) of 7.56 µM. It also gave a TGI (NCI-H226 lung) of 46 µM, a TGI (HT29 colon) of 4.71 µM and a TGI (HS 578T breast) of 53 µM. The TGI (HCT-116 colon) was 19.3 µM, the TGI (A498 renal) was 49.1 µM and the TGI (OVCAR-3 ovarian) was 6.52 µM. The TGI (MDA-MB-231 breast) was 24.8 µM, the TGI (HOP-92 NSCLC) was 9.64 µM and the TGI (HL-60(TB) leukemia) was 6.98 µM. The TGI (EKVX NSCLC) was 31.5 µM, the TGI (HOP-62 NSCLC) was 30.4 µM and the TGI (SNB-19 CNS) was 31.6 µM. The TGI (MALME-3M melanoma) was 25.2 µM, the TGI (UO-31 renal) was 31 µM and the TGI (MDA-MB-435) was 22.3 µM. It also gave a TGI (K-562 leukemia) of over 100 µM, a TGI (U251 CNS) of 24 µM and a TGI (DU-145 prostate) of 29.5 µM. The TGI (KM12 colon) was 24.4 µM, the TGI (COLO 205 colon) was 24 µM and the TGI (IGROV1 ovarian) was 27 µM. The TGI (NCI-H23 lung) was 31.1 µM, the TGI (LOX IMVI melanoma) was 5.72 µM and the TGI (OVCAR-8 ovarian) was 45.1 µM. For the same compound, the TGI (MOLT-4 leukemia) was over 100 µM, the TGI (TK-10 renal) was 39 µM and the TGI (OVCAR-4 ovarian) was 21.9 µM. The TGI (ACHN renal) was 11.4 µM, the TGI (HCC-2998 colon) was 24 µM and the TGI (NCI/ADR-RES ovarian) was 43.8 µM. The TGI (SF-539 CNS) was 30.2 µM, the TGI (PC-3 prostate) was 12.3 µM and the TGI (M14 melanoma) was 21.8 µM. The TGI (SR leukemia) was over 100 µM, the TGI (NCI-H460 lung) was 45.2 µM and the TGI (A549 NSCLC) was 34.7 µM. For the same compound, the TGI (SN12C renal) was 23.9 µM, the TGI (HCT-15 colon) was 20.6 µM and the TGI (MCF7 breast) was 19.5 µM. It also gave a TGI (RPMI-8226 leukemia) of 9.69 µM, a TGI (SK-MEL-5 melanoma) of 31.2 µM and a TGI (786-0 renal) of 7.63 µM. The TGI (SF-295 CNS) was 29.3 µM, the TGI (BT-549 breast) was 25.7 µM and the TGI (SK-MEL-28 melanoma) was 24.2 µM. It also gave a TGI (UACC-257 melanoma) of 26.8 µM.
